Assay results reported in ChEMBL document CHEMBL4507268 (2021).

Legend:
[1] = molecular target: T1, Muscle, skeletal receptor tyrosine-protein kinase (Homo sapiens) (UniProt O15146); settings: Compound concentration 1000.0 nM
T1 sequence (whole entry): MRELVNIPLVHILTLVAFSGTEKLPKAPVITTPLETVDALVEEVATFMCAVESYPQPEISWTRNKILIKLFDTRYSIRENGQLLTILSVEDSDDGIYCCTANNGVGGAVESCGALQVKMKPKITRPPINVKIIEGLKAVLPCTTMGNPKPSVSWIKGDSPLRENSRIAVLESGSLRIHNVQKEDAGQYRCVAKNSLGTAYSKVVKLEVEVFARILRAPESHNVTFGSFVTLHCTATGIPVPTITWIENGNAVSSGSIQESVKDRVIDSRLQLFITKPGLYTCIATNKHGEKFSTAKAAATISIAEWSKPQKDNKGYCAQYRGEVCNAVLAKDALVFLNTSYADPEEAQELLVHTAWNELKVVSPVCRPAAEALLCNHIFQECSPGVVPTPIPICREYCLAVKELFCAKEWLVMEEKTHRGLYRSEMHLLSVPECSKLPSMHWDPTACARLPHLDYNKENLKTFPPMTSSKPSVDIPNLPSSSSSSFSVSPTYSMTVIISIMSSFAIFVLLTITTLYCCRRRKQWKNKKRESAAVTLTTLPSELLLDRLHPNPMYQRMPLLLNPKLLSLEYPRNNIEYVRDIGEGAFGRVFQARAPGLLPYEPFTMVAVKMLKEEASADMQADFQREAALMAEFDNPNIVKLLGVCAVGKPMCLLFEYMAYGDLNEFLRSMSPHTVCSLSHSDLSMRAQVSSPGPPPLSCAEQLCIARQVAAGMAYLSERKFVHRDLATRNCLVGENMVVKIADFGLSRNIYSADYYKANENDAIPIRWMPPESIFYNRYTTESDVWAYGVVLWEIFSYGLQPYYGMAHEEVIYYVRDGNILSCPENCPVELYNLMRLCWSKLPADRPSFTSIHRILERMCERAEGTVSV

[2] = molecular target: Wee1-like protein kinase 2 (Homo sapiens) (UniProt P0C1S8); settings: Compound concentration 1000.0 nM
Sequence of Wee1-like protein kinase 2 (Homo sapiens) (P0C1S8 whole entry, looked up): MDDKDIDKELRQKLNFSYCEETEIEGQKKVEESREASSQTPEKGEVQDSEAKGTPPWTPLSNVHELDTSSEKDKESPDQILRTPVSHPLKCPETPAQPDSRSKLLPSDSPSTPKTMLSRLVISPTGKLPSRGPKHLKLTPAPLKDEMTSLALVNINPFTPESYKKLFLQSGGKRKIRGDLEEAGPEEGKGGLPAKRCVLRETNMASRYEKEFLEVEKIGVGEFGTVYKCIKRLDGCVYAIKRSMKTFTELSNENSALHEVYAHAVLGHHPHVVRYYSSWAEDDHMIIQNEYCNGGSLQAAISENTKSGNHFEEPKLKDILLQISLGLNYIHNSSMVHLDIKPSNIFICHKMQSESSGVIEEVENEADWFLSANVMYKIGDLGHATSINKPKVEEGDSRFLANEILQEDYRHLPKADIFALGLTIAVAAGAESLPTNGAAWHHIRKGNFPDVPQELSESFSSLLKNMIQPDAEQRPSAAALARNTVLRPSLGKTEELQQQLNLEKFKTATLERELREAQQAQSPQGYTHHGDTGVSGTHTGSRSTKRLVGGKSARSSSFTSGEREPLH

[3] = molecular target: Insulin receptor (Homo sapiens) (UniProt P06213); settings: Compound concentration 1000.0 nM
Sequence of Insulin receptor (Homo sapiens) (P06213 28-758 limits assumed): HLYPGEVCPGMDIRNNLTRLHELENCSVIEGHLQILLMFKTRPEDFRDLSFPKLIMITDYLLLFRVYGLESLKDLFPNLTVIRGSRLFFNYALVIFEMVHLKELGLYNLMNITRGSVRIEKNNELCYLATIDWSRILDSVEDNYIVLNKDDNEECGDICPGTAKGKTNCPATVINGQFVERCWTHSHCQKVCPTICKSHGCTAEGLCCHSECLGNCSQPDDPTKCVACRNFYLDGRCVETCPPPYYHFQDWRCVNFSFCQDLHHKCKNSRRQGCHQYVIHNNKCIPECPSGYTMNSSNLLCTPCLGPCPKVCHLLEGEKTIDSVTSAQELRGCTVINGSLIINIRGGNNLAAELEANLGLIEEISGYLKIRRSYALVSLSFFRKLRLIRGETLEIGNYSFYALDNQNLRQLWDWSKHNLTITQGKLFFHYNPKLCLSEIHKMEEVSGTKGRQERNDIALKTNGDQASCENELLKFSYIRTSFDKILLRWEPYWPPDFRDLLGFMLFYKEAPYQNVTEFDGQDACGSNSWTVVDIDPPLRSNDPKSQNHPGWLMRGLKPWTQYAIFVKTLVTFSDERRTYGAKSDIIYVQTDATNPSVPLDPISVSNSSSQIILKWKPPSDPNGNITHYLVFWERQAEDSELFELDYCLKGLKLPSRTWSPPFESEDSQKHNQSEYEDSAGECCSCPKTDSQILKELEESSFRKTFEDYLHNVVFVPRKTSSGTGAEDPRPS
Sequence of Insulin receptor (Homo sapiens) (P06213 763-1382 limits assumed): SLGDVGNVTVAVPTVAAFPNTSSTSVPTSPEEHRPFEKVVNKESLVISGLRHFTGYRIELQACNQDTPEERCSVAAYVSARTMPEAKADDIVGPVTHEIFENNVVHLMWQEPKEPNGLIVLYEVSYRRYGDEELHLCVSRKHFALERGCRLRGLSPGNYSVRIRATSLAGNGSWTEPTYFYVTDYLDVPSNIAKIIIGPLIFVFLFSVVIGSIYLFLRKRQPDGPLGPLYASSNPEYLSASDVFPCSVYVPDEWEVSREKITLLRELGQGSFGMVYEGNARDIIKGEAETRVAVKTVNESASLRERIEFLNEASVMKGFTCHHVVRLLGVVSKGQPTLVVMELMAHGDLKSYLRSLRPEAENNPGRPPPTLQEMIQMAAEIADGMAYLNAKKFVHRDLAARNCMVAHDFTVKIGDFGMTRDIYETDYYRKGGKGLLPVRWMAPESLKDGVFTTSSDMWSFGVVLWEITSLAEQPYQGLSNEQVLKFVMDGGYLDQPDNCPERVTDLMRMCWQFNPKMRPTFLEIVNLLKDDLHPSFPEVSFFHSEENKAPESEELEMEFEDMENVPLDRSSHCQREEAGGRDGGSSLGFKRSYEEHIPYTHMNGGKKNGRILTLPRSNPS

[4] = test system: Mast/stem cell growth factor receptor Kit (Homo sapiens), P10721 [V559D,T670I]; settings: Compound concentration 1000.0 nM
[5] = molecular target: T2, Serine/threonine-protein kinase D2 (Homo sapiens) (UniProt Q9BZL6); settings: Compound concentration 1000.0 nM
T2 sequence (whole entry): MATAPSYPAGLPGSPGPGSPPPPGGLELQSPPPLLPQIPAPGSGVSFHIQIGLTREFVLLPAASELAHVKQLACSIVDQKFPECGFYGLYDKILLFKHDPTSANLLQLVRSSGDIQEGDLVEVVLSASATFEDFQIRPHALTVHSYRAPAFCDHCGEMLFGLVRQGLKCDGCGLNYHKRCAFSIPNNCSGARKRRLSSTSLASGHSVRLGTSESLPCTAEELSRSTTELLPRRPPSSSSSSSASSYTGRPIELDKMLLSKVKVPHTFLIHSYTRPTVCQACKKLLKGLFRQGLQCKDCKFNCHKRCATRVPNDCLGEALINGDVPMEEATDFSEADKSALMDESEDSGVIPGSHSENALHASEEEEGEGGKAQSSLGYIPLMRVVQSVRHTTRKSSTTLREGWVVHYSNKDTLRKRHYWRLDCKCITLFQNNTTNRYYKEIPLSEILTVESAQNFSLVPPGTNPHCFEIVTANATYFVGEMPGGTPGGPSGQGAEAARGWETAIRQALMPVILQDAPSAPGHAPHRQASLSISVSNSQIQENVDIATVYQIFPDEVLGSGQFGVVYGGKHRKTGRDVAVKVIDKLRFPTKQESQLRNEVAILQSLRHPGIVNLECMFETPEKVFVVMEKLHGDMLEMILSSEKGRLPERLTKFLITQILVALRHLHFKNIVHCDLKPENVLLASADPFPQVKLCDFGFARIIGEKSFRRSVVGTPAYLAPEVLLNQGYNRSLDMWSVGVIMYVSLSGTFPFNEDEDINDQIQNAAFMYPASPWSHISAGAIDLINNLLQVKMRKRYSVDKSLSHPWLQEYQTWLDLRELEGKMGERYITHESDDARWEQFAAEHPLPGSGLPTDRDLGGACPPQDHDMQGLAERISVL

[6] = molecular target: Cyclin-dependent kinase 8 (Homo sapiens) (UniProt P49336); settings: Compound concentration 1000.0 nM
Sequence of Cyclin-dependent kinase 8 (Homo sapiens) (P49336 whole entry): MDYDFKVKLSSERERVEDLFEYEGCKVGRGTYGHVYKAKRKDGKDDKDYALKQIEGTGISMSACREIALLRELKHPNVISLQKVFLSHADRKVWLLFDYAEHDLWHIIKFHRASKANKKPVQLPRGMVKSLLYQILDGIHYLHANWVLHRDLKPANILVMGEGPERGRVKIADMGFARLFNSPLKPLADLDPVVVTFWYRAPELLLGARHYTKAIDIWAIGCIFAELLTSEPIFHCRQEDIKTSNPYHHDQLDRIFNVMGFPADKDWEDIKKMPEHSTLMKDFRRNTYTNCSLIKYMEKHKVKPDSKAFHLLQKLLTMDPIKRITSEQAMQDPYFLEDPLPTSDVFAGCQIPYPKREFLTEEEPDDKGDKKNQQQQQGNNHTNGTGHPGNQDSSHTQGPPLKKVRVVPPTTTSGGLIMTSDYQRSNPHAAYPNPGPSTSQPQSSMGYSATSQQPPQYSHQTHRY

[7] = molecular target: T3, Testis-specific serine/threonine-protein kinase 1 (Homo sapiens) (UniProt Q9BXA7); settings: Compound concentration 1000.0 nM
T3 sequence (whole entry): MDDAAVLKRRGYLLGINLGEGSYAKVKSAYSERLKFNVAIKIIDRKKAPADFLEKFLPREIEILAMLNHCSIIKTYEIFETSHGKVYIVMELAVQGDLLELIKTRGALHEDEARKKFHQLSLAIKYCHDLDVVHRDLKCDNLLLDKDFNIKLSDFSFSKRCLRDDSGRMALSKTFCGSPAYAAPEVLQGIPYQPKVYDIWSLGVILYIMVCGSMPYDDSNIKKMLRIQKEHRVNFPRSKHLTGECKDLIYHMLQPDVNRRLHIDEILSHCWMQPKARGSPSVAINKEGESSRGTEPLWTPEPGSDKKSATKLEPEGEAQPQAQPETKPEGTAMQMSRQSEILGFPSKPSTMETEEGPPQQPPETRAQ

[8] = molecular target: Serine/threonine-protein kinase PLK1 (Homo sapiens) (UniProt P53350); settings: Compound concentration 1000.0 nM
[9] = molecular target: Dual specificity protein kinase CLK4 (Homo sapiens) (UniProt Q9HAZ1); settings: Compound concentration 1000.0 nM
Sequence of Dual specificity protein kinase CLK4 (Homo sapiens) (Q9HAZ1 whole entry, looked up): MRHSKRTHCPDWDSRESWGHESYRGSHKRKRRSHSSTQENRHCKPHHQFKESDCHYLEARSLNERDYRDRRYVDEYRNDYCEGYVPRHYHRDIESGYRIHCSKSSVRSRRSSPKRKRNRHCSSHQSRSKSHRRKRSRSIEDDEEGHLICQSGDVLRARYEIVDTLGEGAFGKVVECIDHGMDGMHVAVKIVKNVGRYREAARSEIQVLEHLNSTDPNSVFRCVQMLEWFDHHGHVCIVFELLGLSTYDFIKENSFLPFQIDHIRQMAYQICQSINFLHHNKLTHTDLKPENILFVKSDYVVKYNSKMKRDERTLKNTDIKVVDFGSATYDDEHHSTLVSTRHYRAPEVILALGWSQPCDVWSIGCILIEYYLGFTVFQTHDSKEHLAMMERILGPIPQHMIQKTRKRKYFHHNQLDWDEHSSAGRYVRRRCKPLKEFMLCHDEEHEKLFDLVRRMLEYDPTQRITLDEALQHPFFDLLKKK

[10] = molecular target: Insulin receptor-related protein (Homo sapiens) (UniProt P14616); settings: Compound concentration 1000.0 nM
Sequence of Insulin receptor-related protein (Homo sapiens) (P14616 27-742 limits assumed): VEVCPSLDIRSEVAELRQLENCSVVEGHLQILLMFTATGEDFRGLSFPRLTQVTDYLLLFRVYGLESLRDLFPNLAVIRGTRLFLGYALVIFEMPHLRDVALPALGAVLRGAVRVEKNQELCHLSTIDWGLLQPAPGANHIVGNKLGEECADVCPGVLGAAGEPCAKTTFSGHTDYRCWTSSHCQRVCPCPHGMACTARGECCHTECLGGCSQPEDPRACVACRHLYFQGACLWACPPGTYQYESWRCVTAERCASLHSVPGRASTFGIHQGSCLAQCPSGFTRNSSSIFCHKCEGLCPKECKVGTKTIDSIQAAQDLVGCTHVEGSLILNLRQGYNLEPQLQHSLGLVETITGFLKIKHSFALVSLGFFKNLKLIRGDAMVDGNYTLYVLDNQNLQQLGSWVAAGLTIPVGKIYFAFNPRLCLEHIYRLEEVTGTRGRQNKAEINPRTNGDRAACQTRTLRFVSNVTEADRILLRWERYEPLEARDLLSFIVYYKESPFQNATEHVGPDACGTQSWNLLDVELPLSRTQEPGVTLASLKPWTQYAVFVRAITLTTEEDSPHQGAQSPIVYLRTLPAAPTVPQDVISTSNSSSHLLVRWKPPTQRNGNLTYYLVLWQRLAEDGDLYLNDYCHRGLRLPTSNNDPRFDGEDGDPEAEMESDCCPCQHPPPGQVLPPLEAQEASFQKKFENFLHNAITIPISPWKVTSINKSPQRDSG
Sequence of Insulin receptor-related protein (Homo sapiens) (P14616 747-1297 limits assumed): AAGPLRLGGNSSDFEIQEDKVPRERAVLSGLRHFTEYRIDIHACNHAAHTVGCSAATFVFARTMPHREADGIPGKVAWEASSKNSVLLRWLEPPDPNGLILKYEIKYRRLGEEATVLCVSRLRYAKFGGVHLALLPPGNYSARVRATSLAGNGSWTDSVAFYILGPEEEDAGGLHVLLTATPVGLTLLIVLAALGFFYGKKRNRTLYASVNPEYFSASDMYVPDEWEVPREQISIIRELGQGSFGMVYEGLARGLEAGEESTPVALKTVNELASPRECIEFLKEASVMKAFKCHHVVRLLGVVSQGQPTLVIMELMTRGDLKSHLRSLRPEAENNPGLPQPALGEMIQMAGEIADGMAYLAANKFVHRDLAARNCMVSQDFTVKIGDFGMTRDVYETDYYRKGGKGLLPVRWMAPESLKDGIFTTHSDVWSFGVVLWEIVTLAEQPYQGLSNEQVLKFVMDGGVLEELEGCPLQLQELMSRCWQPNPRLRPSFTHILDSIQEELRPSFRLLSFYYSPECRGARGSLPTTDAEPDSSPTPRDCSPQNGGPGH

[11] = molecular target: T4, cAMP-dependent protein kinase catalytic subunit PRKX (Homo sapiens) (UniProt P51817); settings: Compound concentration 1000.0 nM
T4 sequence (whole entry): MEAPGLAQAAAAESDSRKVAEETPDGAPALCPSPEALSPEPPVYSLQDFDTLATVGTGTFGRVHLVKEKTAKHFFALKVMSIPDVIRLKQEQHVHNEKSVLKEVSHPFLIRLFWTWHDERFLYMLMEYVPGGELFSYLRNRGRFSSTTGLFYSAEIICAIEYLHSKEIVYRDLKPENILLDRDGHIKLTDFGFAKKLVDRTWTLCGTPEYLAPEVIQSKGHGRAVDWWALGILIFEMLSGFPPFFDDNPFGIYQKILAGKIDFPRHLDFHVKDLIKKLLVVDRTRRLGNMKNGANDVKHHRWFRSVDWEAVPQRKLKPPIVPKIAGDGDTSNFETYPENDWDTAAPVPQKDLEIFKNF

[12] = molecular target: 5-hydroxytryptamine receptor 1A (Homo sapiens) (UniProt P08908); settings: Compound concentration 10.0 uM
Sequence of 5-hydroxytryptamine receptor 1A (Homo sapiens) (P08908 whole entry): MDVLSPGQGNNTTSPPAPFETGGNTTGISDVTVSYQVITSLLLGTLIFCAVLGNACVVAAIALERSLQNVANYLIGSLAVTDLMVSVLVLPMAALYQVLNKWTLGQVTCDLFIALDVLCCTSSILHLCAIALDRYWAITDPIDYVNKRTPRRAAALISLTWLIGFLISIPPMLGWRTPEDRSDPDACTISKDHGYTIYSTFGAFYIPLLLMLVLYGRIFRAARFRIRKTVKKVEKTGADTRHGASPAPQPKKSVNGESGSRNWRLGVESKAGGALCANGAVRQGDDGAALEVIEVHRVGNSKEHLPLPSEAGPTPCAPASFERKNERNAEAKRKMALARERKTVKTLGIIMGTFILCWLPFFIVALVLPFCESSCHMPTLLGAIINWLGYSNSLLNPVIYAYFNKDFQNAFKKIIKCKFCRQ

Cc1nc(C2CCN(C(=O)c3ccc(OC(F)(F)F)cc3N)CC2)c2ncc(N3CCN(C)CC3)cc2n1 [BAY-693]
inactive: residual activity [1] 100% | residual activity [2] 100% | residual activity [3] 93% | residual activity [4] 100% | residual activity [5] 92% | residual activity [6] 100% | residual activity [7] 100% | residual activity [8] 79% | residual activity [9] 97% | residual activity [10] 100% | residual activity [11] 100% | inhibition [12] -3.88%

CN1CCN(c2cnc3c(C4CCN(C(=O)c5ccc(OC(F)(F)F)cc5N)CC4)ncnc3c2)CC1 [BAY-885]
inactive: residual activity [1] 100% | residual activity [2] 100% | residual activity [3] 88% | residual activity [4] 100% | residual activity [5] 100% | residual activity [6] 100% | residual activity [7] 100% | residual activity [8] 93% | residual activity [9] 98% | residual activity [10] 100% | residual activity [11] 100% | inhibition [12] 7.38%
